Measurements as given in ChEMBL document CHEMBL1151081, “Synthesis of avermectin B1-4,4a-oxide: a precursor of potent anthelmintic agents” (Bioorg Med Chem Lett, 1992).
Converted amounts (≈) assume the structure as drawn.

What was measured:
[1] = test system: Artemia salina; experiment: Inhibition of Artemia salina evaluated using Arternia salina Immobilization assay; type: functional
[2] = test system: Caenorhabditis elegans; experiment: Inhibition of Caenorhabditis elegans binding evaluated using Caenorhabditis elegans motility assay; type: functional, organism-based
[3] = test system: Gerbillinae; experiment: In vivo Effective dose against Trichostrongylus colubriformis in Trichostrongylus colubriformis assay using gerbils; type: functional
[4] = test system: Gerbillinae; experiment: In vivo Effective dose against Trichostrongylus colubriformis in T. colubriformis assay using Gerbils; type: functional
[5] = Caenorhabditis elegans, read-out: IC50

IC50 [2, 5] [ng/mL] | IC50 [2] [ng/mL] | Compound | IC100 [1] [ng/mL] | ED85 [3] [mg/kg] | ED85 [4] [mg/kg]
0.1 (≈ 0.102 nM) |  | CCC(C)[C@H]1O[C@]2(C=C[C@@H]1C)C[C@@H]1C[C@@H](C/C=C(\C)[C@@H](O[C@H]3C[C@H](OC)[C@@H](O[C@H]4C[C@H](OC)[C@@](O)(CNCc5ccco5)[C@H](C)O4)[C@H](C)O3)[C@@H](C)/C=C/C=C3\CO[C@@H]4[C@H](O)C(C)=C[C@@H](C(=O)O1)[C@]34O)O2 (some centres not stated) | 10415 | 0.063 | 
0.18 (≈ 0.187 nM) |  | CCC(C)[C@H]1O[C@]2(C=C[C@@H]1C)C[C@@H]1C[C@@H](C/C=C(\C)[C@@H](O[C@H]3C[C@H](OC)[C@@H](O[C@H]4C[C@H](OC)[C@@](O)(CSC(C)=O)[C@H](C)O4)[C@H](C)O3)[C@@H](C)/C=C/C=C3\CO[C@@H]4[C@H](O)C(C)=C[C@@H](C(=O)O1)[C@]34O)O2 (some centres not stated) | 1730 | 0.125 | 
1.28 (≈ 1.28 nM) |  | CCC(C)[C@H]1O[C@]2(C=C[C@@H]1C)C[C@@H]1C[C@@H](C/C=C(\C)[C@@H](O[C@H]3C[C@H](OC)[C@@H](O[C@H]4C[C@H](OC)[C@@](O)(CSC5CCCCC5)[C@H](C)O4)[C@H](C)O3)[C@@H](C)/C=C/C=C3\CO[C@@H]4[C@H](O)C(C)=C[C@@H](C(=O)O1)[C@]34O)O2 (some centres not stated) | 6930 | 0.25 | 
 |  | IVERMECTIN [listing 1 of 2 here] | 430 | 0.063 | 
0.17 (≈ 0.18 nM) |  | CCCNC[C@@]1(O)[C@H](C)O[C@@H](O[C@H]2[C@H](C)O[C@@H](O[C@@H]3/C(C)=C/C[C@@H]4C[C@@H](C[C@]5(C=C[C@H](C)[C@@H](C(C)CC)O5)O4)OC(=O)[C@@H]4C=C(C)[C@@H](O)[C@H]5OC/C(=C\C=C\[C@@H]3C)[C@]54O)C[C@@H]2OC)C[C@@H]1OC (some centres not stated) | 6930 | 0.125 | 
 | 0.2 | IVERMECTIN [listing 2 of 2 here] |  |  | 
0.13 (≈ 0.132 nM) |  | CCC(C)[C@H]1O[C@]2(C=C[C@@H]1C)C[C@@H]1C[C@@H](C/C=C(\C)[C@@H](O[C@H]3C[C@H](OC)[C@@H](O[C@H]4C[C@H](OC)[C@@](O)(CSc5ncc[nH]5)[C@H](C)O4)[C@H](C)O3)[C@@H](C)/C=C/C=C3\CO[C@@H]4[C@H](O)C(C)=C[C@@H](C(=O)O1)[C@]34O)O2 (some centres not stated) | 430 | 0.031 | 
0.13 (≈ 0.13 nM) |  | CCC(C)[C@H]1O[C@]2(C=C[C@@H]1C)C[C@@H]1C[C@@H](C/C=C(\C)[C@@H](O[C@H]3C[C@H](OC)[C@@H](O[C@H]4C[C@H](OC)[C@@](O)(CNCC5CCCCC5)[C@H](C)O4)[C@H](C)O3)[C@@H](C)/C=C/C=C3\CO[C@@H]4[C@H](O)C(C)=C[C@@H](C(=O)O1)[C@]34O)O2 (some centres not stated) | 55500 | 0.25 | 
1.39 (≈ 1.45 nM) |  | CCCNCC1(O)C[C@H](C)O[C@@H](O[C@H]2[C@H](C)O[C@@H](O[C@@H]3/C(C)=C/C[C@@H]4C[C@@H](C[C@]5(C=C[C@H](C)[C@@H](C(C)CC)O5)O4)OC(=O)[C@@H]4C=C(C)[C@@H](O)[C@H]5OC/C(=C\C=C\[C@@H]3C)[C@]54O)C[C@@H]2OC)C[C@@H]1OC (some centres not stated) | 27800 |  | 0.125
1.11 (≈ 1.14 nM) |  | CCC(C)[C@H]1O[C@]2(C=C[C@@H]1C)C[C@@H]1C[C@@H](C/C=C(\C)[C@@H](O[C@H]3C[C@H](OC)[C@@H](O[C@H]4C[C@H](OC)C(O)(CSC(C)=O)C[C@H](C)O4)[C@H](C)O3)[C@@H](C)/C=C/C=C3\CO[C@@H]4[C@H](O)C(C)=C[C@@H](C(=O)O1)[C@]34O)O2 (some centres not stated) | 1300 |  | 0.031
0.15 (≈ 0.147 nM) |  | CCOC(CNC[C@@]1(O)[C@H](C)O[C@@H](O[C@H]2[C@H](C)O[C@@H](O[C@@H]3/C(C)=C/C[C@@H]4C[C@@H](C[C@]5(C=C[C@H](C)[C@@H](C(C)CC)O5)O4)OC(=O)[C@@H]4C=C(C)[C@@H](O)[C@H]5OC/C(=C\C=C\[C@@H]3C)[C@]54O)C[C@@H]2OC)C[C@@H]1OC)OCC (some centres not stated) | 13900 | 0.125 | 
1.28 (≈ 1.29 nM) |  | CCC(C)[C@H]1O[C@]2(C=C[C@@H]1C)C[C@@H]1C[C@@H](C/C=C(\C)[C@@H](O[C@H]3C[C@H](OC)[C@@H](O[C@H]4C[C@H](OC)[C@@](O)(CSCC(=O)OC)[C@H](C)O4)[C@H](C)O3)[C@@H](C)/C=C/C=C3\CO[C@@H]4[C@H](O)C(C)=C[C@@H](C(=O)O1)[C@]34O)O2 (some centres not stated) | 870 | 0.25 | 
0.88 (≈ 0.875 nM) |  | CCC(C)[C@H]1O[C@]2(C=C[C@@H]1C)C[C@@H]1C[C@@H](C/C=C(\C)[C@@H](O[C@H]3C[C@H](OC)[C@@H](O[C@H]4C[C@H](OC)C(O)(CSCC(=O)OC)C[C@H](C)O4)[C@H](C)O3)[C@@H](C)/C=C/C=C3\CO[C@@H]4[C@H](O)C(C)=C[C@@H](C(=O)O1)[C@]34O)O2 (some centres not stated) | 1300 |  | 0.063
0.7 (≈ 0.756 nM) |  | CCC(C)[C@H]1O[C@]2(C=C[C@@H]1C)C[C@@H]1C[C@@H](C/C=C(\C)[C@@H](O[C@H]3C[C@H](OC)[C@@H](O[C@H]4C[C@H](OC)C(O)(CC#N)C[C@H](C)O4)[C@H](C)O3)[C@@H](C)/C=C/C=C3\CO[C@@H]4[C@H](O)C(C)=C[C@@H](C(=O)O1)[C@]34O)O2 (some centres not stated) | 870 |  | 0.031
0.11 (≈ 0.11 nM) |  | CCC(C)[C@H]1O[C@]2(C=C[C@@H]1C)C[C@@H]1C[C@@H](C/C=C(\C)[C@@H](O[C@H]3C[C@H](OC)[C@@H](O[C@H]4C[C@H](OC)[C@@](O)(CSc5ccncc5)[C@H](C)O4)[C@H](C)O3)[C@@H](C)/C=C/C=C3\CO[C@@H]4[C@H](O)C(C)=C[C@@H](C(=O)O1)[C@]34O)O2 (some centres not stated) | 6930 | 0.125 | 
